Source: patent publication US11802111B2, “Cyclobutyl amide monoacylglycerol lipase modulators” (Janssen Pharmaceutica NV, priority 2020, dated 2023)

target: human MGL from HeLa cells (Homo sapiens (Human), UniProt Q99685); assay: MGL in vitro activity assay ([glycerol-1,3-3H]-oleoyl glycerol hydrolysis, activated carbon filtration); type: biochemical; details: 300 nM [Glycerol-1,3-3H]-oleoyl glycerol, one hour
Method in brief: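 Activity measured as tritium in the flow-through after activated carbon filtration of a 1 h reaction containing 300 nM 3H-oleoyl glycerol, compound and HeLa-derived human MGL. Compounds screened at 10 μM; IC50 series start at an empirically chosen highest concentration.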

Chain of human MGL from HeLa cells (Q99685 whole entry): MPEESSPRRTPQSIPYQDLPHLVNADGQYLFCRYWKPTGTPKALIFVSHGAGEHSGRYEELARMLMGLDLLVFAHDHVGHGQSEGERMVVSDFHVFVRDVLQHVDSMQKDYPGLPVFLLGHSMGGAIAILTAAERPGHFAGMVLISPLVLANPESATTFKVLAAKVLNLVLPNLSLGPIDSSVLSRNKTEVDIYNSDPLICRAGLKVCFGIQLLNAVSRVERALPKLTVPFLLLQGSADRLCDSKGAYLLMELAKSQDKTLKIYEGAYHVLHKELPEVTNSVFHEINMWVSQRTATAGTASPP

First: Cc1c(OC2CC3(C2)CN(C(=O)[C@H]2C[C@@](C)(O)C2)C3)cccc1C(F)(F)F [Example 252, ((1s,3s)-3-Hydroxy-3-methylcyclobutyl)(6-(2-methyl-3-(trifluoromethyl)phenoxy)-2-azaspiro[3.3]heptan-2-yl)methanone]
Second: Cc1cc(OC2CC3(C2)CN(C(=O)[C@H]2C[C@@](C)(O)C2)C3)ccc1C(F)(F)F [Example 247, ((1s,3s)-3-Hydroxy-3-methylcyclobutyl)(6-(3-methyl-4-(trifluoromethyl)phenoxy)-2-azaspiro[3.3]heptan-2-yl)methanone]
The IC50 of the first is 3.4-fold higher: 47 nM for the first, 14 nM for the second. The second is the more potent here.

Going from `C[C@@H](c1ccccc1)[C@@H]1CCC2(C1)CN(C(=O)[C@H]1C[C@@](C)(O)C1)C2` (single isomer, unassigned) [Example 337, ((1s,3*S)-3-Hydroxy-3-methylcyclobutyl)((*R)-6-((*R)-1-phenylethyl)-2-azaspiro[3.4]octan-2-yl)methanone] to `C[C@@H](c1ccccc1)C1CC2(C1)CN(C(=O)[C@H]1C[C@@](C)(O)C1)C2` (stereo in doubt) [Example 310, ((1s,3*S)-3-Hydroxy-3-methylcyclobutyl)(6-((*R)-1-phenylethyl)-2-azaspiro[3.3]heptan-2-yl)methanone], the IC50 falls from 149 nM to 33 nM (4.5-fold). The second is the more potent here.

Going from `COc1cccc(C2CCC3(C2)CN(C(=O)[C@H]2C[C@@](C)(O)C2)C3)c1C` (mixture of isomers) [Example 13, (rac)-((1s,3s)-3-Hydroxy-3-methylcyclobutyl)(6-(3-methoxy-2-methylphenyl)-2-azaspiro[3.4]octan-2-yl)methanone] to `COc1cc([C@@H]2CCC3(C2)CN(C(=O)[C@H]2C[C@@](C)(O)C2)C3)ccc1C` (stereo in doubt) [Example 18, ((1s,3*S)-3-Hydroxy-3-methylcyclobutyl)((*R)-6-(3-methoxy-4-methylphenyl)-2-azaspiro[3.4]octan-2-yl)methanone], the IC50 falls from 159 nM to 64 nM (2.5-fold).

`C[C@]1(O)C[C@@H](C(=O)N2CC3(CC(Cc4ccc(OC(F)F)cc4)C3)C2)C1` [Example 221, (6-(4-(Difluoromethoxy)benzyl)-2-azaspiro[3.3]heptan-2-yl)((1s,3s)-3-hydroxy-3-methylcyclobutyl)methanone] and `C[C@]1(O)C[C@@H](C(=O)N2CC3(CC[C@@H](Cc4ccc(OC(F)(F)F)cc4)C3)C2)C1` (racemic) [Example 179, (rac)-((1s,3s)-3-Hydroxy-3-methylcyclobutyl)(6-(4-(trifluoromethoxy)benzyl)-2-azaspiro[3.4]octan-2-yl)methanone] are within 1.5-fold of each other in IC50: 5.1 nM for the first, 5.7 nM for the second.

`CC(C)(C)c1cccc(C2CCC3(CC2)CN(C(=O)[C@H]2C[C@@](C)(O)C2)C3)n1` [Example 116, (7-(6-(tert-Butyl)pyridin-2-yl)-2-azaspiro[3.5]nonan-2-yl)((1s,3s)-3-hydroxy-3-methylcyclobutyl)methanone] and `C[C@]1(O)C[C@@H](C(=O)N2CC3(CCC(c4cccc(C5(C(F)(F)F)CC5)n4)CC3)C2)C1` [Example 371, ((1s,3s)-3-Hydroxy-3-methylcyclobutyl)(7-(6-(1-(trifluoromethyl)cyclopropyl)pyridin-2-yl)-2-azaspiro[3.5]nonan-2-yl)methanone] are within 1.5-fold of each other in IC50: 4.4 nM for the first, 6.4 nM for the second.

Going from `C[C@]1(O)C[C@@H](C(=O)N2CC3(CC(Cn4ccc5ccc(C(F)(F)F)nc54)C3)C2)C1` [Example 295, ((1s,3s)-3-Hydroxy-3-methylcyclobutyl)(6-((6-(trifluoromethyl)-1H-pyrrolo[2,3-b]pyridin-1-yl)methyl)-2-azaspiro[3.3]heptan-2-yl)methanone] to `C[C@]1(O)C[C@@H](C(=O)N2CC3(CC(Cn4ccc(C(F)(F)F)n4)C3)C2)C1` [Example 237, ((1s,3s)-3-Hydroxy-3-methylcyclobutyl)(6-((3-(trifluoromethyl)-1H-pyrazol-1-yl)methyl)-2-azaspiro[3.3]heptan-2-yl)methanone], the IC50 rises from 20 nM to 840 nM (42-fold).

Compared with `CCc1cc(C)cc(C2CCC3(CC2)CN(C(=O)[C@H]2C[C@@](C)(O)C2)C3)c1` [Example 121, (7-(3-Ethyl-5-methylphenyl)-2-azaspiro[3.5]nonan-2-yl)((1s,3s)-3-hydroxy-3-methylcyclobutyl)methanone], `Cc1cccc(C2CCC3(CC2)CN(C(=O)[C@H]2C[C@@](C)(O)C2)C3)c1` [Example 137, ((1s,3s)-3-Hydroxy-3-methylcyclobutyl)(7-(m-tolyl)-2-azaspiro[3.5]nonan-2-yl)methanone] is 5.1-fold higher in IC50: 7.4 nM for the first, 38 nM for the second. The first is the more potent here.

First: CC(C)(C)c1cccc(C2CCC3(C2)CN(C(=O)[C@H]2C[C@@](C)(O)C2)C3)c1 (mixture of isomers) [Example 43, (rac)-(6-(3-(tert-Butyl)phenyl)-2-azaspiro[3.4]octan-2-yl)((1s,3s)-3-hydroxy-3-methylcyclobutyl)methanone]
Second: CC(C)(C)c1cccc(C2CCC3(CCN(C(=O)[C@H]4C[C@@](C)(O)C4)CC3)C2)c1 (mixture of isomers) [Example 38, (rac)-(2-(3-(tert-Butyl)phenyl)-8-azaspiro[4.5]decan-8-yl)((1s,3s)-3-hydroxy-3-methylcyclobutyl)methanone]
The IC50 of the first is 2.9-fold lower: 6.9 nM for the first, 20 nM for the second. The first is the more potent here.

First: Cc1cccc(C)c1C1CCC2(C1)CN(C(=O)[C@H]1C[C@@](C)(O)C1)C2 (mixture of isomers) [Example 98, (rac)-(6-(2,6-Dimethylphenyl)-2-azaspiro[3.4]octan-2-yl)((1s,3s)-3-hydroxy-3-methylcyclobutyl)methanone]
Second: COc1cc([C@H]2CCC3(C2)CN(C(=O)[C@H]2C[C@@](C)(O)C2)C3)ccc1C (stereo in doubt) [Example 19, ((1s,3*R)-3-Hydroxy-3-methylcyclobutyl)((*S)-6-(3-methoxy-4-methylphenyl)-2-azaspiro[3.4]octan-2-yl)methanone]
The IC50 of the first is 4.4-fold higher: 292 nM for the first, 67 nM for the second.

Compared with `Cn1nc(C(F)(F)F)cc1CC1CC2(C1)CN(C(=O)[C@H]1C[C@@](C)(O)C1)C2` [Example 214, ((1s,3s)-3-Hydroxy-3-methylcyclobutyl)(6-((1-methyl-3-(trifluoromethyl)-1H-pyrazol-5-yl)methyl)-2-azaspiro[3.3]heptan-2-yl)methanone], `C[C@]1(O)C[C@@H](C(=O)N2CC3(CC(Cc4ccccc4OC(F)(F)F)C3)C2)C1` [Example 196, ((1s,3s)-3-Hydroxy-3-methylcyclobutyl)(6-(2-(trifluoromethoxy)benzyl)-2-azaspiro[3.3]heptan-2-yl)methanone] is 150-fold lower in IC50: 417 nM for the first, 2.8 nM for the second.

Compared with `COc1ccc(C)c(C2CCC3(CC2)CN(C(=O)[C@H]2C[C@@](C)(O)C2)C3)c1` [Example 363, ((1s,3s)-3-Hydroxy-3-methylcyclobutyl)(7-(5-methoxy-2-methylphenyl)-2-azaspiro[3.5]nonan-2-yl)methanone], `COc1cc(C2CCC3(CC2)CN(C(=O)[C@H]2C[C@@](C)(O)C2)C3)ccc1F` [Example 103, (7-(4-Fluoro-3-methoxyphenyl)-2-azaspiro[3.5]nonan-2-yl)((1s,3s)-3-hydroxy-3-methylcyclobutyl)methanone] is 1.7-fold lower in IC50: 164 nM for the first, 99 nM for the second.

Going from `C[C@]1(O)C[C@@H](C(=O)N2CC3(CCC(c4cnn5ccccc45)CC3)C2)C1` [Example 394, ((1s,3s)-3-Hydroxy-3-methylcyclobutyl)(7-(pyrazolo[1,5-c]pyridin-3-yl)-2-azaspiro[3.5]nonan-2-yl)methanone] to `Cn1ncc2cc(C3CCC4(CC3)CN(C(=O)[C@H]3C[C@@](C)(O)C3)C4)ccc21` [Example 122, ((1s,3s)-3-Hydroxy-3-methylcyclobutyl)(7-(1-methyl-1H-indazol-5-yl)-2-azaspiro[3.5]nonan-2-yl)methanone], the IC50 falls from 226 nM to 143 nM (1.6-fold).

Going from `Cc1cccc(CC2CC3(C2)CN(C(=O)[C@H]2C[C@@](C)(O)C2)C3)c1C1CC1` [Example 207, (6-(2-Cyclopropyl-3-methylbenzyl)-2-azaspiro[3.3]heptan-2-yl)((1s,3s)-3-hydroxy-3-methylcyclobutyl)methanone] to `C[C@]1(O)C[C@@H](C(=O)N2CC3(CC(Cc4cccc(C5CC5)c4)C3)C2)C1` [Example 218, (6-(3-Cyclopropylbenzyl)-2-azaspiro[3.3]heptan-2-yl)((1s,3s)-3-hydroxy-3-methylcyclobutyl)methanone], the IC50 rises from 1.7 nM to 6.3 nM (3.7-fold). The first is the more potent here.

Compared with `CC(C)(C)c1ccc(C2CC3(C2)CN(C(=O)[C@H]2C[C@@](C)(O)C2)C3)cc1` [Example 2, (6-(4-(tert-Butyl)phenyl)-2-azaspiro[3.3]heptan-2-yl)((1s,3s)-3-hydroxy-3-methylcyclobutyl)methanone], `C[C@]1(O)C[C@@H](C(=O)N2CC3(CC[C@H](c4cccc(C5CC5)c4)C3)C2)C1` (stereo in doubt) [Example 60, ((*S)-6-(3-Cyclopropylphenyl)-2-azaspiro[3.4]octan-2-yl)((1s,3*R)-3-hydroxy-3-methylcyclobutyl)methanone] is 6-fold lower in IC50: 149 nM for the first, 25 nM for the second.

`C[C@]1(O)C[C@@H](C(=O)N2CC3(CCC(Oc4ccc(OC(F)(F)F)cn4)CC3)C2)C1` [Example 427, ((1s,3s)-3-Hydroxy-3-methylcyclobutyl)(7-((5-(trifluoromethoxy)pyridin-2-yl)oxy)-2-azaspiro[3.5]nonan-2-yl)methanone] and `C[C@]1(O)C[C@@H](C(=O)N2CC3(CCC(Cc4ccc(C(F)F)cc4)CC3)C2)C1` [Example 162, (7-(4-(Difluoromethyl)benzyl)-2-azaspiro[3.5]nonan-2-yl)((1s,3s)-3-hydroxy-3-methylcyclobutyl)methanone] are within 1.5-fold of each other in IC50: 28 nM for the first, 29 nM for the second.

First: COC1(c2cccc(C(C)C)c2)CCC2(CC1)CN(C(=O)[C@H]1C[C@@](C)(O)C1)C2 [Example 266, ((1s,3s)-3-Hydroxy-3-methylcyclobutyl)(7-(3-isopropylphenyl)-7-methoxy-2-azaspiro[3.5]nonan-2-yl)methanone]
Second: C[C@]1(O)C[C@@H](C(=O)N2CC3(CCC(Cn4ccc5cccnc54)CC3)C2)C1 [Example 400, (7-((1H-Pyrrolo[2,3-b]pyridin-1-yl)methyl)-2-azaspiro[3.5]nonan-2-yl)((1s,3s)-3-hydroxy-3-methylcyclobutyl)methanone]
The IC50 of the first is 260-fold lower: 1.2 nM for the first, 311 nM for the second.
